Results published in patent publication US8158621B2, “Methods of treating or preventing autoimmune diseases with 2,4-pyrimidinediamine compounds” (Rigel Pharmaceuticals, Inc., priority 2002, dated 2012).

Legend:
[1] = test system: cultured human mast cells (CHMC); experiment: CHMC low cell density IgE activation: tryptase assay; format: cell-based
Summary of the method: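 Cells pelleted, taken up in warm MT, plated at 1000-1500/well, held 1 hr 37° C. Anti-IgE added, 30 min 37° C. Plates spun; supernatant mixed with tryptase substrate, 30 min RT.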

[2] = test system: cultured human mast cells (CHMC); experiment: CHMC low cell density ionomycin activation: tryptase assay; format: cell-based
[3] = low cell density, read-out: CHMC anti-IgE Tryptase
[4] = low cell density, read-out: CHMC Ionomycin Tryptase

IC50 [1, 3] | IC50 [2, 4] | IC50 ([1]; Low Density CHMC, anti-IgE activation, tryptase release, read-out: CHMC anti-IgE Tryptase IC50) | IC50 ([2]; Low Density CHMC, ionomycin activation, tryptase release, read-out: CHMC Ionomycin Tryptase IC50) | SMILES
> 10 µM | > 10 µM | – | – | CCN(CC)CCCNc1ncc(F)c(Nc2cc(OC)cc(OC)c2)n1 [Compound R950469]
0.065 µM | 3.49 µM | – | – | Cc1cc(Nc2ncc(F)c(Nc3ccc4c(c3)NC(=O)C(C)(C)O4)n2)cc(C)c1Cl [Compound R927118]
0.466 µM | > 10 µM | – | – | COc1ccc(Nc2ncc(F)c(Nc3ccc4c(c3)OCCO4)n2)cc1Cl [Compound R927084]
> 10 µM | > 10 µM | – | – | CNC(=O)n1ccc2ccc(Nc3nc(Nc4cc(C)cc(C)c4)ncc3F)cc21 [Compound R927099]
0.205 µM | > 10 µM | – | – | CNC(=O)COc1cccc(Nc2ncc(F)c(Nc3ccc(OC(C)C)nc3)n2)c1 [Compound R926962]
0.45 µM | > 10 µM | – | – | CNC(=O)COc1cccc(Nc2ncc(F)c(Nc3ccc(OCC(=O)NC)c(Cl)c3)n2)c1 [Compound R927043]
1.53 µM | > 10 µM | – | – | CNC(=O)Nc1cccc(Nc2nc(Nc3cc(C)cc(C)c3)ncc2F)n1 [Compound R927098]
> 10 µM | > 10 µM | – | – | Fc1cnc(NC2CC2)nc1Nc1ccc(N2CCOCC2)cc1 [Compound R945357]
0.146 µM | > 10 µM | – | – | OCCCn1ncc2cc(Nc3ncc(F)c(Nc4ccc(Cl)cc4)n3)ccc21 [Compound R935383]
0.134 µM | 5.03 µM | – | – | COc1ccc(Nc2nc(Nc3ccc4c(cnn4CCCO)c3)ncc2F)cc1Cl [Compound R935461]
0.614 µM | > 10 µM | – | – | Cc1cc(Nc2ncc(F)c(Nc3ccc4c(c3)OCCO4)n2)cc(C)c1Cl [Compound R927117]
1.57 µM | > 10 µM | – | – | O=C(COc1cccc(Nc2ncc(F)c(Nc3ccc(N4CCOCC4)cc3)n2)c1)NC1CCC1 [Compound R945362]
0.204 µM | > 10 µM | – | – | Cn1ncc2ccc(Nc3ncc(F)c(Nc4ccc5c(c4)OCCO5)n3)cc21 [Compound R935392]
3.09 µM | > 10 µM | – | – | COc1cc(Nc2nc(Nc3ccc(CN)cc3)ncc2F)cc(OC)c1 [Compound R950457]
0.259 µM | > 10 µM | – | – | COc1ccc(Nc2nc(Nc3cccc(OCC(=O)NC4CC4)c3)ncc2F)cc1Cl [Compound R926967]
0.257 µM | > 10 µM | – | – | O=C(COc1cccc(Nc2ncc(F)c(NC3CC3)n2)c1)Nc1ccc(N2CCOCC2)cc1 [Compound R945365]
0.687 µM | > 10 µM | – | – | O=C(COc1cccc(Nc2ncc(F)c(NC3CC3)n2)c1)NC1CC1 [Compound R945363]
> 10 µM | > 10 µM | – | – | CC1(C)C(=O)NC(=O)c2cc(Nc3nc(N[C@@H]4CCCC[C@H]4N)ncc3F)ccc21 [Compound R950442]
0.117 µM | > 10 µM | – | – | Cc1cccc(C)c1Nc1ncc(F)c(Nc2ccc3cc[nH]c3c2)n1 [Compound R927088]
> 10 µM | > 10 µM | – | – | NC1CCCCC1Nc1ncc(F)c(Nc2ccc3c(c2)NC(=O)C(CCO)O3)n1 (stereo not shown) [Compound R950443]
0.072 µM | 1.38 µM | – | – | COc1cc(Nc2ncc(F)c(Nc3ccc4c(c3)NC(=O)C(C)(C)O4)n2)cc(OC)c1 [Compound R927074]

IC50 [1, 3] | IC50 [2, 4] | IC50 ([1]; Low Density CHMC, anti-IgE activation, tryptase release, read-out: CHMC anti-IgE Tryptase IC50) | IC50 ([2]; Low Density CHMC, ionomycin activation, tryptase release, read-out: CHMC Ionomycin Tryptase IC50) | SMILES
0.849 µM | > 10 µM | – | – | CC(C)[C@@H]1CC[C@@H](C)C[C@H]1OC(=O)[C@H]1Cc2cc(Nc3ncc(F)c(Nc4ccc5c(c4)NC(=O)C(F)(F)O5)n3)ccc2O1 [Compound R927063]
0.748 µM | 15.6 µM | – | – | CCOC(=O)CCn1ncc2cc(Nc3ncc(F)c(Nc4ccc(OC)c(Cl)c4)n3)ccc21 [Compound R935460]
0.399 µM | > 10 µM | – | – | CN(CCO)C(=O)C1Cc2cc(Nc3ncc(F)c(Nc4ccc(OC(F)(F)F)c(Cl)c4)n3)ccc2O1 (racemic) [Compound R926960]
1.02 µM | > 10 µM | – | – | CNC(=O)COc1cccc(Nc2ncc(F)c(Nc3ccc4c(c3)C(=O)NC(=O)C4(C)C)n2)c1 [Compound R909318]
16.2 µM | > 10 µM | – | – | CCN(CC)CCCNc1ncc(F)c(Nc2ccc(Cl)c(Cl)c2)n1 [Compound R950470]
0.535 µM | > 10 µM | – | – | CNCC1Cc2cc(Nc3ncc(F)c(Nc4ccc(OC)c(Cl)c4)n3)ccc2O1 (racemic) [Compound R927045]
0.364 µM | > 10 µM | – | – | CNC(=O)CCn1ncc2cc(Nc3ncc(F)c(Nc4ccc(OC)c(Cl)c4)n3)ccc21 [Compound R935462]
0.372 µM | 7.8 µM | – | – | COc1cc(Nc2nc(Nc3ccc4cnn(C)c4c3)ncc2F)ccc1F [Compound R935449]
0.429 µM | > 10 µM | – | – | Cn1cc2ccc(Nc3ncc(F)c(Nc4ccc(Cl)c(Cl)c4)n3)cc2n1 [Compound R935444]
0.494 µM | > 10 µM | – | – | COc1cc(Nc2nc(Nc3ccc4cn(C)nc4c3)ncc2F)ccc1F [Compound R935450]
0.303 µM | > 10 µM | – | – | CNC(=O)COc1cccc(Nc2ncc(F)c(Nc3cccc(NC(C)=O)n3)n2)c1 [Compound R927093]
1.08 µM | 36 µM | – | – | CCN(CC)CCNC(=O)c1ccc(Nc2ncc(F)c(Nc3ccc4c(c3)NC(=O)C(CCO)O4)n2)cc1 (racemic) [Compound R950448]
1.17 µM | > 10 µM | – | – | Fc1cnc(Nc2ccc(N3CCOCC3)cc2)nc1NC1CC1 [Compound R945356]
0.51 µM | > 10 µM | – | – | COc1c(Cl)cc(Nc2ncc(F)c(Nc3ccc4c(c3)NC(=O)[C@H](C)O4)n2)cc1Cl [Compound R908946]
20.6 µM | > 10 µM | – | – | O=C1COc2ccc(Nc3nc(Nc4cc(Cl)cc(Cl)c4)ncc3F)nc2N1 [Compound R945454]
0.111 µM | 4.3 µM | – | – | CCOC(=O)CCn1cc2cc(Nc3ncc(F)c(Nc4ccc5c(c4)NC(=O)C(C)(C)O5)n3)ccc2n1 [Compound R935448]
0.353 µM | > 10 µM | – | – | O=C(NCC(O)CO)C1Cc2cc(Nc3ncc(F)c(Nc4ccc(OC(F)(F)F)c(Cl)c4)n3)ccc2O1 (mixture of isomers) [Compound R926958]
1.32 µM | 12 µM | – | – | CC(C)(C)OC(=O)NCc1ccc(Nc2ncc(F)c(Nc3ccc(Cl)c(Cl)c3)n2)cc1 [Compound R950458]
1.37 µM | > 10 µM | – | – | O=C(COc1cccc(Nc2ncc(F)c(Nc3ccc(N4CCOCC4)cc3)n2)c1)NC1CC1 [Compound R945360]
0.213 µM | > 10 µM | – | – | CNC(=O)CCn1cc2cc(Nc3ncc(F)c(Nc4ccc(Cl)c(Cl)c4)n3)ccc2n1 [Compound R935452]
0.236 µM | 4.28 µM | – | – | COc1c(Cl)cc(Nc2ncc(F)c(Nc3ccc4c(c3)C(N)CCO4)n2)cc1Cl (racemic) [Compound R950424]

IC50 [1, 3] | IC50 [2, 4] | IC50 ([1]; Low Density CHMC, anti-IgE activation, tryptase release, read-out: CHMC anti-IgE Tryptase IC50) | IC50 ([2]; Low Density CHMC, ionomycin activation, tryptase release, read-out: CHMC Ionomycin Tryptase IC50) | SMILES
– | – | > 10 µM | > 10 µM | O=C(NNc1nc(Nc2ccc3c(c2)OCCO3)ncc1F)c1ccc2c(c1)OCO2 [Compound R926406]
0.283 µM | 15.3 µM | – | – | COc1cc(Nc2ncc(F)c(Nc3ccc(OC)c(Cl)c3)n2)cc(OC)c1 [Compound R927066]
0.176 µM | 88 µM | – | – | CC1(C)Oc2ccc(Nc3ncc(F)c(Nc4ccc5cn[nH]c5c4)n3)cc2NC1=O [Compound R935440]
6.2 µM | > 10 µM | – | – | CNC(=O)n1ccc2ccc(Nc3nc(Nc4ccc(OC)c(Cl)c4)ncc3F)cc21 [Compound R927100]
0.137 µM | 9.94 µM | – | – | COc1ccc(Nc2nc(Nc3ccc4cn[nH]c4c3)ncc2F)cc1Cl [Compound R935408]
> 10 µM | > 10 µM | – | – | CNC(=O)n1ccc2ccc(Nc3ncc(F)c(Nc4ccc(OC)c(Cl)c4)n3)cc21 [Compound R927094]
0.368 µM | > 10 µM | – | – | COc1ccc(Nc2nc(Nc3cccc(OCC(=O)NCC(O)CO)c3)ncc2F)cc1Cl (racemic) [Compound R926964]
0.043 µM | > 10 µM | – | – | CC1(C)Oc2ccc(Nc3nc(Nc4ccc5cc[nH]c5c4)ncc3F)nc2NC1=O [Compound R945444]
1.14 µM | > 10 µM | – | – | COc1ccc(Nc2ncc(F)c(NC3CCC3)n2)cc1Cl [Compound R945395]
5.29 µM | > 10 µM | – | – | COc1ccc(Nc2nc(Nc3cc(C)c(OC)c(Cl)c3)ncc2F)cc1Cl [Compound R926972]
0.163 µM | 0.847 µM | – | – | COc1ccc(Nc2ncc(F)c(Nc3ccc4c(c3)NC(=O)C(C)(C)O4)n2)cc1Cl [Compound R927097]
0.511 µM | 4.7 µM | – | – | CCOC(=O)CCn1cc2cc(Nc3ncc(F)c(Nc4ccc(Cl)c(Cl)c4)n3)ccc2n1 [Compound R935447]
0.155 µM | > 10 µM | – | – | COc1ccc(Nc2nc(Nc3cccc(OCC(=O)NCCO)c3)ncc2F)cc1Cl [Compound R926963]
1.34 µM | 21.7 µM | – | – | O=C(COc1cccc(Nc2ncc(F)c(NC3CCC3)n2)c1)NC1CC1 [Compound R945393]
0.68 µM | 5.49 µM | – | – | CN(C)Cc1cc2cc(Nc3ncc(F)c(Nc4ccc(Cl)c(Cl)c4)n3)ccc2o1 [Compound R926980]
15.4 µM | > 10 µM | – | – | CC(C)Oc1ccc(Nc2nc(Nc3ccc4c(c3)C[C@H](C(=O)O[C@@H]3C[C@H](C)CC[C@H]3C(C)C)O4)ncc2F)cc1 [Compound R927062]
2.36 µM | > 10 µM | – | – | COC(=O)COc1cccc(Nc2ncc(F)c(Nc3ccc(N4CCOCC4)cc3)n2)c1 [Compound R945361]
0.074 µM | 47.5 µM | – | – | COc1cc(Nc2ncc(F)c(Nc3ccc4c(c3)NC(=O)C(CCO)O4)n2)cc(OC)c1 (racemic) [Compound R908950]
1.52 µM | > 10 µM | – | – | O=C(O)C1Cc2cc(Nc3ncc(F)c(Nc4ccc(OC(F)(F)F)c(Cl)c4)n3)ccc2O1 (stereo not shown) [Compound R926957]
0.15 µM | > 10 µM | – | – | CNC(=O)CCn1cc2cc(Nc3ncc(F)c(Nc4ccc5c(c4)NC(=O)C(C)(C)O5)n3)ccc2n1 [Compound R935453]
